According to patent US20250241918A1, “NOVEL USE OF PYRAZOLOPYRIMIDINE COMPOUND” (HEFEI YOUYUAN PHARMACEUTICAL CO., LTD., priority 2022, published 2025):

Tests used:
[1] = test system: rat colitis model induced by rectal administration of DNBS; experiment: Rat colitis induced by enema administration of DNBS; format: in vivo, Wister rats; conditions: 20 mg/kg p.o. QD, day -2 to 6 (G6); DNBS colitis rats; comparable to positive control group
Method: Sixty male Wister rats (purchased from Beijing Vital River Laboratory Animal Technology Co., Ltd.) were randomly divided into six groups, with 10 rats in each group: G1 was the blank control group; G2-G6 were the rat colitis model groups induced by rectal administration of DNBS solution (Tokyo Chemical Industry Co., Ltd., 50 mg/mL DNBS dissolved in 30% ethanol). Various animals were administered with drugs starting from two days before colitis induced by DNBS, and the administration schedules were shown in Table 3 below.
The induction of colitis was performed as follows. The rats were fasted for 40 h before administration, and were subcutaneously injected with 5% glucose saline ([…], once a day) during the fast. On day 0, the fasted rats were anesthetized using Zoletil (intraperitoneal injection, 25 mg/kg, purchased from a pharmacy) and xylazine (intraperitoneal injection, 5 mg/kg, purchased from Sigma-Aldrich). In G2-G6 model groups, colitis was induced in rats by inserting a catheter from the anus into the left colic flexure (about 8 cm away from the anus) and administrating DNBS (0.5 mL per rat) through enema administration. The G1 blank control group was administered with 30% ethanol via enema using the same method. In order to avoid the reflux of enema fluid, animals with enema administration were kept in a head-down position for 15 mins, and then maintained in the Trendelenburg position until waking up.
During the administration period, the body weights of rats in all groups were recorded every day. Six days later, the animals were euthanized and the colorectal tissues were collected. The ulcer area of the colorectum, as well as the degrees of adhesion, intestinal obstruction, ulceration, and intestinal wall thickening, were measured. The pathological condition of the intestinal wall was evaluated. The conditions of colon damage was evaluated according to Table 4.
If the ulcer is irregular in shape, it can be considered as a rectangle, and then the length and width were measured to evaluate the ulcer area. Ulcer area (cm^2)=ulcer length (cm)×ulcer width (cm).

[2] = test system: adjuvant-induced arthritis model rats; experiment: Adjuvant-induced rat arthritis model; format: in vivo, Sprague-Dawley (SD) rats; conditions: Day 21
Method: Experimental animals: Fifty male Sprague-Dawley (SD) rats weighing 180+20 g (provided by Qinglongshan Animal Breeding Center, license number SCXK(Su) 2017-0001) were fed with conventional pellet food (Jiangsu Xietong Biology Co., Ltd.) and housed in a clean animal facility. The rats were housed under a 12 h dark/12 h light cycle with free access to food and water. The temperature was maintained between 20° C. to 26° C., while the relative humidity ranged from 40% to 70%. […] Each group of 10 animals was administered QD for a continuous period of 21 days. […]
Paw swelling measurement: 1) the volume of right hind paw for the rats in each group was measured and recorded using a plethysmometer for paw volume before administration, which was used as the baseline value before modeling; 2) the volume of the rats' paw was measured at the end of administration (Day 21), which was used as the secondary value; 3) the swelling volume of the rats' paw was calculated according to the following formula: […]
The arthritis index scores were determined as following: at the end of administration (Day 21), rats in each group were evaluated according to the scoring standard described in Table 5. […]

CN(C)CC(=O)N1CCC[C@@H](n2nc(-c3ccc(Oc4ccccc4)cc3)c3c(N)ncnc32)C1 [Compound 22, (R)-1-(3-(4-amino-(4-phenoxyphenyl)-1H-pyrazolo[3,4-d]pyrimidin-1-yl)piperidin-1-yl)-2-(dimethylamino) ethanone]
animal body weights vs G2 model group [1]: significantly lower than those for the G2 group | scores for the degrees of adhesion, intestinal obstruction, ulceration, intestinal wall thickening vs G2 model group [1]: significantly lower than those for the G2 group | ulcer areas of colorectal tissues vs G2 model group [1]: significantly lower than those for the G2 group | paw swelling ([2]; 10 mg/kg orally QD): significantly alleviated paw swelling | paw swelling ([2]; 30 mg/kg orally QD): significantly alleviated paw swelling
